According to ChEMBL document CHEMBL1145710, “Antineoplastic agents. 362. Isolation and X-ray crystal structure of dibromophakellstatin from the Indian ocean sponge Phakellia mauritiana” (1997):
Converted amounts (≈) assume the structure as drawn.

How the values were obtained:
Type in all cases: functional
PC-3 = assay: Cytotoxicity against human PC3 cells by SRB assay
KM-20L2 = assay: Cytotoxicity against human KM20L2 cells by SRB assay; conditions: read-out: ED50 (the source's name)
OVCAR-3 = assay: Cytotoxicity against human OVCAR-3 cells by SRB assay; conditions: read-out: ED50 (the source's name)
OVCAR-8 = assay: Cytotoxicity against human OVCAR8 cells by SRB assay
SNB-75 = assay: Cytotoxicity against human SNB75 cells by SRB assay
SF-539 = assay: Cytotoxicity against human SF539 cells by SRB assay
HOP-92 = assay: Cytotoxicity against human HOP92 cells by SRB assay
MDA-MB-231 = assay: Cytotoxicity against human MDA-MB-231 cells by SRB assay
A498 = assay: Cytotoxicity against human A498 cells by SRB assay; conditions: read-out: ED50 (the source's name)
SF-295 = assay: Cytotoxicity against human SF295 cells by SRB assay; conditions: read-out: ED50 (the source's name)
K562 = assay: Cytotoxicity against human K562 cells by SRB assay
[1] = Cytotoxicity against human Hs 578T cells by SRB assay
A549 = assay: Cytotoxicity against human A549 cells by SRB assay
NCI-H226 = assay: Cytotoxicity against human NCI-H226 cells by SRB assay
NCI-H460 = assay: Cytotoxicity against human H460 cells by SRB assay; conditions: read-out: ED50 (the source's name)
786-0 = assay: Cytotoxicity against human 786-0 cells by SRB assay
HT-29 = assay: Cytotoxicity against human HT-29 cells by SRB assay
COLO 205 = assay: Cytotoxicity against human COLO205 cells by SRB assay
SK-MEL-5 = assay: Cytotoxicity against human SK-MEL-5 cells by SRB assay; conditions: read-out: ED50 (the source's name)
U-251 = assay: Cytotoxicity against human U251 cells by SRB assay
[2] = Cytotoxicity against human MCF7/ADR cells by SRB assay; conditions: NCI/ADR-RES
OVCAR-5 = assay: Cytotoxicity against human OVCAR5 cells by SRB assay
NCI-H522 = assay: Cytotoxicity against human NCI-H522 cells by SRB assay
HCT-116 = assay: Cytotoxicity against human HCT116 cells by SRB assay

| Compound | EC50 (KM-20L2) | EC50 (OVCAR-3) | EC50 (A498) | EC50 (SF-295) | EC50 (NCI-H460) | EC50 (SK-MEL-5) | further results |
| --- | --- | --- | --- | --- | --- | --- | --- |
| O=C1N[C@H]2n3c(cc(Br)c3Br)C(=O)N3CCC[C@]23N1 [DIBROMOPHAKELLSTATIN] | 0.11 µg/mL (≈ 0.282 µM) | 0.46 µg/mL (≈ 1.18 µM) | 0.21 µg/mL (≈ 0.538 µM) | 1.5 µg/mL (≈ 3.85 µM) | 0.62 µg/mL (≈ 1.59 µM) | 0.11 µg/mL (≈ 0.282 µM) | GI50 (PC-3): 708 nM; GI50 (OVCAR-8): 120 nM; GI50 (SNB-75): 776 nM; GI50 (SF-539): 617 nM; GI50 (HOP-92): 490 nM; GI50 (MDA-MB-231): 724 nM; GI50 (K562): 692 nM; GI50 [1]: 871 nM; GI50 (A549): 676 nM; GI50 (NCI-H226): 871 nM; GI50 (786-0): 603 nM; GI50 (HT-29): 631 nM; GI50 (COLO 205): 794 nM; GI50 (U-251): 589 nM; GI50 [2]: 525 nM; GI50 (OVCAR-5): 676 nM; GI50 (NCI-H522): 240 nM; GI50 (HCT-116): 575 nM |
| NC1=N/C(=C2/CCNC(=O)c3[nH]ccc32)C(=O)N1 [DEBROMOHYMENIALDISINE] | 8.5 µg/mL (≈ 34.7 µM) | 1.8 µg/mL (≈ 7.34 µM) | 24.7 µg/mL (≈ 101 µM) | 38.9 µg/mL (≈ 159 µM) | 42 µg/mL (≈ 171 µM) | 5.7 µg/mL (≈ 23.2 µM) |  |
| NC1=N[C@]23CCCN2C(=O)c2cc(Br)c(Br)n2[C@@H]3N1 [DIBROMOPHAKELLIN] | 20.1 µg/mL (≈ 51.7 µM) | 15.7 µg/mL (≈ 40.4 µM) | 17.8 µg/mL (≈ 45.8 µM) | 18.8 µg/mL (≈ 48.3 µM) | 22 µg/mL (≈ 56.5 µM) | 17 µg/mL (≈ 43.7 µM) |  |
